Earlier results in US20090269400A1, “Nanoparticulate and Controlled Release Compositions Comprising a Cephalosporin” (ELAN PHARMA INTERNATIONAL LIMITED, priority 2005, published 2009).
Where two headings read alike, the source gives them in different places.

Settings: stated in words in background/summary, no method given

For COCC1=C(C(=O)O)N2C(=O)[C@@H](NC(=O)/C(=N\OC)c3csc(N)n3)[C@H]2SC1 [cefpodoxime], the solubility in water is listed as “practically insoluble in water”.

For COCC1=C(C(=O)OC(C)OC(=O)OC(C)C)N2C(=O)[C@@H](NC(=O)/C(=N\OC)c3csc(N)n3)[C@H]2SC1 (mixture of isomers) [Cefpodoxime proxetil, (RS)-1(isopropoxycarbonyloxy)ethyl (+)-(6R,7R)-7-[2-(2-amino-4-thiazolyl)-2-{(Z)methoxyimino}acetamido]-3-methoxymethyl-8-oxo-5-thia-1-azabicyclo [4.2.0]oct-2-ene-2-carboxylate], the solubility in water is listed as “practically insoluble in water” and the solubility in water (listed as cefpodoxime proxetil) is listed as “only slightly soluble in water”.
